Results published in patent US20200353027A1, “A LILAC GINKGO BRICK TEA WITH LIPID LOWERING AND LIVER PROTECTION ACTIVITIES AND A METHOD OF PREPARING THE SAME” (SHAANXI UNIVERSITY OF SCIENCE AND TECHNOLOGY, priority 2019, published 2020).

Test system: mice given ethanol alcohol (alcohol's damage to the liver)
Test: Liver protection in mice given ethanol alcohol
Assay type: in vivo, Kunming mice
Conditions: Tiopronin 50 mg/kg/day, ethanol 3 g/kg/day, after 25 days, blood
Protocol: To study the liver protection effect of the Lilac Ginkgo Brick Tea of Example 1, the following experiments were conduct.
Male Kunming mice, 50 SPF grades, 5 weeks old, 30-35 g, were randomly divided into Blank Group, Control Group, Tiopronin Positive Control Group, Low Dosage Group, and High Dosage Group. 100 g of Lilac Ginkgo Brick Tea was boiled in 1 L water, filtered, and concentrated to 50 mL concentrated Lilac Ginkgo Brick Tea solution. Blank Group and Control Group were given water and regular food; Tiopronin Group was given 50 mg/kg/day Tiopronin; and Low Dosage Group and High Dosage Group were given 20 mL/kg/day and 50 mL/kg/day concentrated Lilac Ginkgo Brick Tea solution, respectively, and regular food. Control Group, Tiopronin Positive Control Group, Low Dosage Group, and High Dosage Group were given 3 g/kg/day (0.01 mL/g) ethanol alcohol. Blank Group was given equal volume water. After 25 days, the mice were fasted for 2 hours, and blood samples were taken to determine alanine aminotransferase (ALT), aspartate aminotransferase (AST), and triglyceride (TG) levels.

CC(S)C(=O)NCC(=O)O (stereo not drawn) [Tiopronin]
ALT (alanine aminotransferase): 64.80 ± 10.47 U/L
AST (aspartate aminotransferase): 140.39 ± 20.92 U/L
TG (triglyceride): 1.295 ± 0.43 mmol/L
